Each block holds one molecule with its values, some of them ahead of it.
Assays:
wild type hFMO3 = target: T1, wild type hFMO3 (Homo sapiens, UniProt P31513); experiment: N-oxygenation kinetics with purified wild-type hFMO3 (LC-MS); assay type: in vitro ADME
T1 construct: made in house; host or cells: E. coli JM109 (vector pJL2)
T1 sequence (P31513 1-532): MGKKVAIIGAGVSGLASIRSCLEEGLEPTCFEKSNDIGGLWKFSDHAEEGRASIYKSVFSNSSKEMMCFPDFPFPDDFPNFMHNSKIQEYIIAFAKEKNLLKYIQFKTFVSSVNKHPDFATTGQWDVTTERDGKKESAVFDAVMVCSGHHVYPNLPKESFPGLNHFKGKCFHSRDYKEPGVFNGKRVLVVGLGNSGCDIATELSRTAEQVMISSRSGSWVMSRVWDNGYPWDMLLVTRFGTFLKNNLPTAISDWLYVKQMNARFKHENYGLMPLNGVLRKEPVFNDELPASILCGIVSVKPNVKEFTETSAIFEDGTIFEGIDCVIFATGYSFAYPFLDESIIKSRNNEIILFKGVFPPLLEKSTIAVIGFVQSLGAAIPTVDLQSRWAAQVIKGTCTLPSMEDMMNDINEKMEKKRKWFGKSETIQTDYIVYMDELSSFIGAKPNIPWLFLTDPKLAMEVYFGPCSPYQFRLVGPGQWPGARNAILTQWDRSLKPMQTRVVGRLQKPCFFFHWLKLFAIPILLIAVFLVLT
Procedure: (§1) Enzymatic reactions were carried out with the purified WT and V257M polymorphic variant in the presence of NADPH and increasing amounts of each substrate as reported in the experimental section. […] The kcat and Km values for V257M were approximately half of that of the wild-type (Figure 3A,B) and the kcat for the wild-type enzyme was at least twice as much of the kcat for V257M.
(§2) The enzyme and NADPH were mixed first and the reaction was initiated by the addition of substrate, preventing thermal degradation of the enzyme. […] The incubations were terminated by the addition of 0.10 mL of ice-cold methanol and 150 μL verapamil as internal standard (IS).
(§3) Prior to LC-MS analysis the reaction mixtures were filtered through a Microcon centrifugal membrane with 3 kDa cutoff (Millipore, Billercia, MA, USA). Substrates and their metabolites were separated using Agilent 1200 HPLC (Agilent Technologies Inc., Santa Clara, CA, USA) equipped with a narrow bore reversed-phase column Zorbax Eclipse XDB-C18, 2.1 × 150 mm, 3.5 μm (Agilent Technologies, Santa Clara, CA, USA) and using a binary solvent system composed of double distilled water with 0.01% formic acid (A), and acetonitrile (ACN) with 0.1% formic acid (B) at flow rate of 0.2 mL min^−1. The initial mobile phase was composed of 20% of solvent B and it was increased to 70% over a period of 3 min and kept 4 min for isocratic separations of substrate, metabolite and internal standard (IS). Finally, the organic solvent was increased to 100% in 30 s for washing the column. Before follower injection, initial mobile phase was re-established for 10 min.
(§4) For quantitative purpose, standards and samples were analysed by LC-ESI-MS/MS in MRM mode using the above-indicated parameters. […] Spectral data were processed using data analysis software of 6300 Series Ion Trap LC/MS 4.0 (Bruker Daltonik GmbH, Bremen, Germany). Metabolite formation was quantified by comparing peak area ratios (metabolite/internal standard) of four data sets of incubations for each Michaelis-Menten curve to ratios obtained from a standard curve containing known amounts of the […].

V257M hFMO3 = target: T2, V257M hFMO3 (Homo sapiens, UniProt P31513, V257M); experiment: N-oxygenation kinetics with purified V257M polymorphic variant of hFMO3 (LC-MS); assay type: in vitro ADME
T2 construct: made in house; host or cells: E. coli JM109 (vector pJL2)
T2 sequence (P31513 1-532 V257M): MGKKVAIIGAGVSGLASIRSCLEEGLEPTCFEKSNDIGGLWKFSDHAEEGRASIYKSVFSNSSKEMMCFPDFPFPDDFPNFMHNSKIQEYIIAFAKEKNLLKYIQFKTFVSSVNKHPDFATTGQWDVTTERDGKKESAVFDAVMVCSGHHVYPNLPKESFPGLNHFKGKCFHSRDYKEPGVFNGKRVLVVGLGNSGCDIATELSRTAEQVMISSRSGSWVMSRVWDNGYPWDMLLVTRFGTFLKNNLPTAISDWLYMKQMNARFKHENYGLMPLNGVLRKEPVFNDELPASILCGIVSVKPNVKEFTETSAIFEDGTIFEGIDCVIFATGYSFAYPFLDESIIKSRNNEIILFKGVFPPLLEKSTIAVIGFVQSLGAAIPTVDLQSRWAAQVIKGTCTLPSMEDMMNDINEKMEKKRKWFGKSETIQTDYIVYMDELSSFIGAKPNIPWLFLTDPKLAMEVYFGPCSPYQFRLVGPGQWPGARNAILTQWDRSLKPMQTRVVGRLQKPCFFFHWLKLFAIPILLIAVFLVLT
Procedure: as §1, §2, §3, §4

[1] = substrate: CO[C@@H](C(=O)N1Cc2n[nH]c(NC(=O)c3ccc(N4CCN(C)CC4)cc3)c2C1)c1ccccc1; experiment: N-oxygenation kinetics with purified wild-type hFMO3 (LC-MS); assay type: in vitro ADME, human; conditions: other: WT hFMO3, N-oxide formation, 0.17 μM enzyme, 0.5 mM NADPH, pH 7.4, 37 °C
Procedure: as §1, §2, §3, §4

[2] = substrate: Cc1cc(Nc2cc(N3CCN(C)CC3)nc(Sc3ccc(NC(=O)C4CC4)cc3)n2)[nH]n1; experiment: as above; assay type: in vitro ADME, human; conditions: other: WT hFMO3, N-oxide formation, 0.17 μM enzyme, 0.5 mM NADPH, pH 7.4, 37 °C
Procedure: as §1, §2, §3, §4

[3] = substrate: CO[C@@H](C(=O)N1Cc2n[nH]c(NC(=O)c3ccc(N4CCN(C)CC4)cc3)c2C1)c1ccccc1; experiment: N-oxygenation kinetics with purified V257M polymorphic variant of hFMO3 (LC-MS); assay type: in vitro ADME, human; conditions: other: V257M hFMO3, N-oxide formation, 0.17 μM enzyme, 0.5 mM NADPH, pH 7.4, 37 °C
Procedure: as §1, §2, §3, §4

[4] = substrate: Cc1cc(Nc2cc(N3CCN(C)CC3)nc(Sc3ccc(NC(=O)C4CC4)cc3)n2)[nH]n1; experiment: as above; assay type: in vitro ADME, human; conditions: other: V257M hFMO3, N-oxide formation, 0.17 μM enzyme, 0.5 mM NADPH, pH 7.4, 37 °C
Procedure: as §1, §2, §3, §4

[5] = WT hFMO3, N-oxide formation, pH 7.4, 37 °C
[6] = V257M hFMO3, N-oxide formation, pH 7.4, 37 °C
[7] = V257M hFMO3, N-oxide formation, values in text

B1: wild type hFMO3 (Homo sapiens) (protein)
chain: MGKKVAIIGAGVSGLASIRSCLEEGLEPTCFEKSNDIGGLWKFSDHAEEGRASIYKSVFSNSSKEMMCFPDFPFPDDFPNFMHNSKIQEYIIAFAKEKNLLKYIQFKTFVSSVNKHPDFATTGQWDVTTERDGKKESAVFDAVMVCSGHHVYPNLPKESFPGLNHFKGKCFHSRDYKEPGVFNGKRVLVVGLGNSGCDIATELSRTAEQVMISSRSGSWVMSRVWDNGYPWDMLLVTRFGTFLKNNLPTAISDWLYVKQMNARFKHENYGLMPLNGVLRKEPVFNDELPASILCGIVSVKPNVKEFTETSAIFEDGTIFEGIDCVIFATGYSFAYPFLDESIIKSRNNEIILFKGVFPPLLEKSTIAVIGFVQSLGAAIPTVDLQSRWAAQVIKGTCTLPSMEDMMNDINEKMEKKRKWFGKSETIQTDYIVYMDELSSFIGAKPNIPWLFLTDPKLAMEVYFGPCSPYQFRLVGPGQWPGARNAILTQWDRSLKPMQTRVVGRLQKPCFFFHWLKLFAIPILLIAVFLVLT
notes: made in house; host or cells: E. coli JM109 (vector pJL2)
Km [1]: 57.3 ± 8.3 µM
kcat [1]: 0.165 ± 0.01 s⁻¹
kcat/Km [1]: 2830 ± 500 M⁻¹ s⁻¹
Km [2]: 23.8 ± 3.4 µM
kcat [2]: 0.155 ± 0.005 s⁻¹
kcat/Km [2]: 6500 ± 1000 M⁻¹ s⁻¹

B2: V257M hFMO3 (Homo sapiens; V257M) (protein)
chain: MGKKVAIIGAGVSGLASIRSCLEEGLEPTCFEKSNDIGGLWKFSDHAEEGRASIYKSVFSNSSKEMMCFPDFPFPDDFPNFMHNSKIQEYIIAFAKEKNLLKYIQFKTFVSSVNKHPDFATTGQWDVTTERDGKKESAVFDAVMVCSGHHVYPNLPKESFPGLNHFKGKCFHSRDYKEPGVFNGKRVLVVGLGNSGCDIATELSRTAEQVMISSRSGSWVMSRVWDNGYPWDMLLVTRFGTFLKNNLPTAISDWLYMKQMNARFKHENYGLMPLNGVLRKEPVFNDELPASILCGIVSVKPNVKEFTETSAIFEDGTIFEGIDCVIFATGYSFAYPFLDESIIKSRNNEIILFKGVFPPLLEKSTIAVIGFVQSLGAAIPTVDLQSRWAAQVIKGTCTLPSMEDMMNDINEKMEKKRKWFGKSETIQTDYIVYMDELSSFIGAKPNIPWLFLTDPKLAMEVYFGPCSPYQFRLVGPGQWPGARNAILTQWDRSLKPMQTRVVGRLQKPCFFFHWLKLFAIPILLIAVFLVLT
notes: as for B1
Km [3]: 60.1 ± 11.4 µM
kcat [3]: 0.0533 s⁻¹
kcat/Km [3]: 833 ± 167 M⁻¹ s⁻¹
Km [4]: 12.9 ± 1.3 µM
kcat [4]: 0.0717 s⁻¹
kcat/Km [4]: 5500 ± 667 M⁻¹ s⁻¹

Now from value to molecule:

Vmax (wild type hFMO3; [5]): 0.57 ± 0.03 nmol/min/mg FMO3
kcat (wild type hFMO3; [5]): 0.165 s⁻¹
Vmax (wild type hFMO3; wild-type enzyme, values in text): 0.57 nmol min^−1 mg FMO3
Vmax (V257M hFMO3; [6]): 0.18 ± 0.01 nmol/min/mg FMO3
kcat (V257M hFMO3; [7]): 0.0533 s⁻¹
Vmax (V257M hFMO3; V257M, values in text): 0.18 nmol min^−1 mg FMO3
Molecule: CO[C@@H](C(=O)N1Cc2n[nH]c(NC(=O)c3ccc(N4CCN(C)CC4)cc3)c2C1)c1ccccc1 [Danusertib]

Vmax (wild type hFMO3; [5]): 0.54 ± 0.02 nmol/min/mg FMO3
kcat (wild type hFMO3; [5]): 0.155 s⁻¹
Vmax (wild type hFMO3; wild type hFMO3, values in text): 536 pmol/min/mg FMO3
Vmax (V257M hFMO3; [6]): 0.25 ± 0.01 nmol/min/mg FMO3
kcat (V257M hFMO3; [7]): 0.0717 s⁻¹
Vmax (V257M hFMO3; V257M hFMO3, values in text): 248 pmol/min/mg FMO3
Molecule: Cc1cc(Nc2cc(N3CCN(C)CC3)nc(Sc3ccc(NC(=O)C4CC4)cc3)n2)[nH]n1 [Tozasertib]

Source: publication PMC3588010, “Effect of Human Flavin-Containing Monooxygenase 3 Polymorphism on the Metabolism of Aurora Kinase Inhibitors” (International Journal of Molecular Sciences, 2013)
